{"source": "patent US8354547B2", "about": "“4β-amino podophyllotoxin congeners as anti tumour antibiotics a process for the preparation thereof” (Council of Scientific & Industrial Research, priority 2008, dated 2013)", "key": {"[1]": {"test_system": "Liver (HEP-2) cancer cell line", "test": "SRB in vitro cytotoxicity assay, Liver HEP-2", "type": "cell-based, human", "conditions": "concentration 1 × 10^−5 (μM/mL)", "experimental": "(§1) Single cell suspension of the tumor cells grown in tissue culture were made, cells counted and cell count adjusted to 1×10^5 to 5×10^5 Ninetysix (96) well plates were seeded with this cell suspension, each well receiving 100 μl of it. The plate was then be incubated at 37° C. temperature in CO2 incubator for 24 hours. Drugs were added at appropriate concentrations after 24-hour, incubation followed by further incubation for 48 hours. Experiment was terminated by gently layering the cells in the wells with 30% TCA and plates were kept in refrigerator for 1 hour following which they were washed thoroughly with tap water, dried attained with 0.4% SRB in 1% acetic aid and finally, the bound SRB eluted with 10 mM tris. Absorbance was read at 540 nm, in the microtitre-plate reader. Optical density of drug-treated cells was compared with that of control cells and cell inhibition was calculated as percent values. […]"}, "[2]": {"test_system": "Neuroblastoma (IMR-32) cancer cell line", "test": "SRB in vitro cytotoxicity assay, Neuroblastoma IMR-32", "type": "cell-based, human", "conditions": "concentration 1 × 10^−5 (μM/mL)", "experimental": "as §1"}, "[3]": {"test_system": "Breast (MCF-7) cancer cell line", "test": "SRB in vitro cytotoxicity assay, Breast MCF-7", "type": "cell-based, human", "conditions": "concentration 1 × 10^−5 (μM/mL)", "experimental": "as §1"}, "[4]": {"test_system": "CNS (SK-N-SH) cancer cell line", "test": "SRB in vitro cytotoxicity assay, CNS SK-N-SH", "type": "cell-based, human", "conditions": "concentration 1 × 10^−5 (μM/mL)", "experimental": "as §1"}, "[5]": {"test_system": "Colon (Colo-205) cancer cell line", "test": "SRB in vitro cytotoxicity assay, Colon Colo-205", "type": "cell-based, human", "conditions": "concentration 1 × 10^−5 (μM/mL)", "experimental": "as §1"}, "[6]": {"test_system": "Colon (SW-620) cancer cell line", "test": "SRB in vitro cytotoxicity assay, Colon SW-620", "type": "cell-based, human", "conditions": "concentration 1 × 10^−5 (μM/mL)", "experimental": "as §1"}, "Topoisomerase-I": {"target": "T1, Topoisomerase-I (Homo sapiens, UniProt P11387)", "T1 sequence (P11387 1-765)": "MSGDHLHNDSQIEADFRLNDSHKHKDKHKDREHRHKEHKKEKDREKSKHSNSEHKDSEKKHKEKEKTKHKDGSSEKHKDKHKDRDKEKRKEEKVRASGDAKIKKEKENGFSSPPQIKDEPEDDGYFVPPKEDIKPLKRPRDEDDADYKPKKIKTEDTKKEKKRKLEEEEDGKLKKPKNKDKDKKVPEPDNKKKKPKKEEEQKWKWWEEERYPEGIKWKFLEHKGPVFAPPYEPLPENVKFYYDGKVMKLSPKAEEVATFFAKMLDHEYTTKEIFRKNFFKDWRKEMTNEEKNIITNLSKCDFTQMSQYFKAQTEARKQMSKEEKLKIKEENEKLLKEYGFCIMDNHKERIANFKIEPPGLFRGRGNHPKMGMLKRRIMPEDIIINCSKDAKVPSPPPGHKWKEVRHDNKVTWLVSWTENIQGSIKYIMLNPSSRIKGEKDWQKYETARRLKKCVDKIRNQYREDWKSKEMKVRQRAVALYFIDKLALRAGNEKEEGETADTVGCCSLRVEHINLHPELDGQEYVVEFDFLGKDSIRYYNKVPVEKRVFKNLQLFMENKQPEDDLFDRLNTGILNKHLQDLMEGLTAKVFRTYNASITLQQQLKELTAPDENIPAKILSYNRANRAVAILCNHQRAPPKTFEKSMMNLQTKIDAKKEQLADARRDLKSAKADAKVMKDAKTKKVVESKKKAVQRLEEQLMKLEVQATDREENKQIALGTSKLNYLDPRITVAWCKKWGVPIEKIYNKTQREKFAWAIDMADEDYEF", "test": "Topoisomerase-I relaxation assay", "type": "biochemical", "conditions": "at 100 μM (FIG. 2)", "experimental": "Apart from this, some of these analogues were evaluated for Topoisomerase-I relaxation, Topoisomerase-II inhibition, DNA laddering assay and DNA cell cycle analysis. Compounds 3c, 4c, 3d and 4d were analyzed for topoisomerase-I assay at 100 μM (FIG. 2) only compound 3d was found active and rest were not active. Compounds 3d, 4d and 4c were analyzed for topoisomerase inhibition assay.\nReaction was assembled in micro centrifuge tube that contains super coiled DNA 250 ng/μl & Topoisomerase-I (4 units) in assay buffer (10 mM Tris-HCl, pH 7.9, 0.15 M NaCl, 0.1% BSA, and 5.0 mM (beta)-mercaptoethanol). In each reaction 2 μl sample was added then volume was made up to 20 μl with water and then incubated at 37° C. Reaction was terminated by addition of 2 μl of 10% SDS. Each sample tube was treated with proteinase K and extracted once with chloroform: isoamyl alcohol. Products were resolved by 0.8% agarose gel electrophoresis in TAE buffer (40 mM tris-acetate, pH 8.0, and 1 mM EDTA) and stained with 0.5 μg/ml ethedium bromide (EtBr)."}, "leukemia (MOLT-4) cells": {"test_system": "leukemia (MOLT-4) cells", "test": "DNA laddering (fragmentation) assay by gel electrophoresis", "type": "cell-based", "conditions": "0.5, 1, 5, and 10 μM, 24 hr incubation (FIG. 4)", "experimental": "(§2) Compound 3d evaluated for DNA laddering assay.\nDNA fragmentation was determined by electrophoresis of extracted genomic DNA form leukemia cell (MOLT4). Briefly, exponentially growing cells (2×10^6 cells/mL) in 6 well plate were treated with compound 3d in 0.5, 1, 5 and 10 μM concentrations for 24 hrs. Cells were harvested, washed with PBS, pellets were dissolved in lyris buffer (10 mM EDTA, 50 mM Tris pH 8.0, 0.5% w/v SDS and proteinase K (0.5 mg/mL) and incubated at 50° C. for 1 hr. Finally the DNA obtained was heated rapidly to 70° C., supplemented with loading dye and immediately resolved on to 1.5% agarose gel at 50 V for 2-3 hrs (FIG. 4)."}, "Lukemia (HL-60) cells": {"test_system": "Lukemia (HL-60) cells", "test": "DNA cell cycle analysis by flow cytometry", "type": "cell-based", "conditions": "0.5, 1, 5, and 10 μM, 24 hr (FIG. 5)", "experimental": "as §2\nEffect of compound 3d on DNA content by cell cycle phase distribution was assessed using HL-60 cells by incubating the HL-60 cells (1×10^6) 1 ml phosphate buffer saline were treated with 3d (0.5, 1, 5, 10 μM) for 24 hr. The cells were then washed twice with ice-cold PBS, harvested, fixed with ice cold PBS in 70% ethanol, and stored at −20° C. for 30 minutes. After Fixation, these cells were incubated with RNase A (0.1 mg/ml) at 37° C. for 30 min, stained with propidium iodide (50 μg/ml) for 30 min on ice in dark, and then measured for DNA content using BD-LSR flow cytometer (Becton Dickinson, USA) equipped with electronic doublet discrimination capability using blue (488 nm) excitation from orgon laser. Data were collected in list mode on 10,000 events for FL2-A vs. FL2-W (FIG. 5)."}}, "data": [{"smiles": "COc1cc([C@@H]2c3cc4c(cc3[C@@H](Nc3cc5c6ccccc6ccc5c5ccccc35)[C@@H]3COC(=O)[C@H]23)OCO4)cc(OC)c1OC", "note": "[Compound 3d, 4β-(6″-Chrycenylamino)-4-desoxypodophyllotoxin]", "values": [{"measurement": "Growth Inhibition(%) Liver HEP-2", "setting": "[1]", "result": 66, "unit": "%"}, {"measurement": "Growth Inhibition(%) Neuroblastma IMR-32", "setting": "[2]", "result": 1, "unit": "%"}, {"measurement": "Growth Inhibition(%) Breast MCF-7", "setting": "[3]", "result": 0, "unit": "%"}, {"measurement": "Growth Inhibition(%) CNS SK-N-SH", "setting": "[4]", "result": 73, "unit": "%"}, {"measurement": "Growth Inhibition(%) Colon Colo-205", "setting": "[5]", "result": 51, "unit": "%"}, {"measurement": "Growth Inhibition(%) Colon SW-620", "setting": "[6]", "result": 14, "unit": "%"}, {"measurement": "activity in topoisomerase-I assay", "setting": "Topoisomerase-I", "result": "active"}, {"measurement": "DNA fragmentation", "setting": "leukemia (MOLT-4) cells", "result": "induced DNA fragmentation"}, {"measurement": "cell cycle phase block", "setting": "Lukemia (HL-60) cells", "result": "blocks the G1 Phase"}, {"measurement": "sub G1 cell population (apoptosis)", "setting": "Lukemia (HL-60) cells", "result": "increase"}]}]}
